Consider 2 substances from US9895410B2, “Methods for preventing and treating oral cancers” (Cornell University, priority 2013, dated 2018).

Data set [1] has as its system PTGS2. The data set is described as follows: Immunohistochemistry of mouse tongue sections for PTGS2 (Cox-2). In kind it is in vivo, mouse (C57BL/6). The following applies: 4-NQO + peptide vs 4-NQO+saline; four mice per group. As to the method:
(§1) Six-week old wild-type C57BL/6 female mice (purchased from the Jackson Laboratory) were used for this study. The mice were maintained on a normal chow (Lab-diet with constant nutrition, Lab-Diet Co, St. Louis, Mo.) and under controlled conditions with a 12 hour light/dark cycle. The mice were randomly divided into an experimental group in which mice received drinking water that contained 100 μg/ml 4-nitroquinoline 1-oxide (4-NQO) (Sigma, St. Louis, Mo.) and a control group in which mice received drinking water that contained propylene glycol (vehicle for 4-NQO). The treatment lasted for 10 weeks after which the mice received regular drinking water. […] Mouse body weights and precancerous and cancerous lesions were monitored in the oral cavities at different times for up to 15 weeks, or until signs of sickness or weight loss. […]
(§2) Immunohistochemistry. […] The sections were incubated with secondary antibodies (1:200, anti-mouse IgG from the M.O.M kit for p16; ready to use anti-rabbit IgG from the Invitrogen SuperPicture kit for Cox-2; and ready to use anti-mouse IgG from the Dako Envision™ HRP (DAB+) kit for mouse PCNA). […] Four to five representative areas of each mouse tongue section were photographed and analyzed.

The subject of data set [2] is mouse tongue tumors induced by 4-NQO. The data set is described as follows: 4-NQO mouse model of oral carcinogenesis: gross tongue lesion multiplicity and severity grading. Type of data set: in vivo, mouse (C57BL/6). As to the method:
A mouse model of oral squamous cell carcinomas or oral cancers was developed by exposing the animals to the carcinogen 4-nitroquinoline 1-oxide (4-NQO) via drinking water.
Six-week old wild-type C57BL/6 female mice (purchased from the Jackson Laboratory) were used for this study. The mice were maintained on a normal chow (Lab-diet with constant nutrition, Lab-Diet Co, St. Louis, Mo.) and under controlled conditions with a 12 hour light/dark cycle. […] Mouse body weights and precancerous and cancerous lesions were monitored in the oral cavities at different times for up to 15 weeks, or until signs of sickness or weight loss. […]
(§3) Tissue dissection, lesion grade measurement, and pathological diagnosis. […] Gross lesions were identified and photographed, and visible cancerous lesions on the tongues were counted. The multiplicity of lesions (number of lesions per mouse) was assessed with a 10× magnification. The severity of gross lesions on the tongues was quantified by a grading system that included 0 (no lesion), 1 (mild lesion), 2 (intermediate lesion), 3 (severe lesion), and 4 (most severe lesion) in a double blinded manner. […]

In data set [3] the test system is PCNA. The data set is described as follows: Immunohistochemistry of mouse tongue sections for PCNA. To be noted: 4-NQO + peptide vs 4-NQO+saline; tongue regions with and without visible lesions; four mice per group. Type of data set: in vivo, mouse (C57BL/6). As to the method: as §1, §2
Data set [4] has as its system mouse tongue tumors induced by 4-NQO. The data set is described as follows: 4-NQO mouse model: histological diagnosis of squamous neoplasia on H&E stained tongue sections. Type of data set: in vivo, mouse (C57BL/6). To be noted: 4-NQO 10 weeks, then peptide 2.5 mg/kg/day s.c. 2 days/week for 15 weeks; four mice per group; 75% in 4-NQO+saline; p=0.07. On the procedure: as §1, §3

Data set [5] relates to p16. The data set is described as follows: Immunohistochemistry of mouse tongue sections for p16. To be noted: peptide injections after 4-NQO treatment vs 4-NQO+saline; four mice per group. Type of data set: in vivo, mouse (C57BL/6). On the procedure:
as §1, §2

Data set [6] concerns several mammalian cell types. The following applies: energy-independent manner; cited from earlier work.

On to D-Arg-2′,6′-Dmt-Lys-Phe-NH2, for which the “PTGS2 protein levels in tongues” value in data set [1] is “greatly reduced levels in PTGS2 protein”. Besides, in data set [2] (4-NQO 100 μg/ml in drinking water 10 weeks, then peptide 2.5 mg/kg/day s.c. on 2 days each week for 15 weeks, 10 mice/group, p<0.05 vs 4-NQO+saline (6.5±2.9)), the “average number of cancerous tongue lesions per mouse (multiplicity)” value is 3.3±2.2. Besides, in data set [2] (4-NQO 10 weeks, then peptide 2.5 mg/kg/day s.c. 2 days/week for 15 weeks, grading 0-4, p<0.05 vs 4-NQO+saline (Fisher's exact test)), the “percentage of less severe tongue lesions of grades 0-2” value was 100%. Besides, the “PCNA positive cells in tongue epithelium” value in data set [3] is “obvious lower numbers of PCNA positive cells”. Further, in data set [4], the “percentage of mice that developed severe dysplasia, carcinoma in situ, and invasive carcinoma” value is given as 25%. For the same substance, the “p16 protein levels in tongue epithelium” value in data set [5] is listed as “greatly limited the 4-NQO-induced decrease in p16 protein levels”.

As to 2′,6′-Dmt-D-Arg-Phe-Lys-NH2, the “penetration of the plasma membrane” value in data set [6] was “readily penetrates the plasma membrane”.
